Assay results from patent publication US20250154138A1, “Small Molecule IL-17A Modulators” (BeiGene, Ltd., priority 2022, published 2025).

Key:
[1] = system: IL-17-induced GROα secretion from HT-29 cells; assay: GROα release assay in human colorectal adenocarcinoma epithelial cell (HT-29, ELISA); format: cell-based; details: Homo sapiens, HT-29, 48 h, 10 ng/mL IL-17A, highest concentration 10 μM, read-out: Cellular assay HT29 cell/CXCL1 IC50
Procedure, shortened: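 IC50 values come from four-parameter fits of GROα levels, quantified by ELISA (450 nm, standard curve) in supernatants. Compounds, 4-fold serially diluted from 10 μM, were mixed 15 min with IL-17A (10 ng/mL final) before 48 h incubation with HT-29 cells at 37°C.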

[2] = target: human IL-17A / human IL-17RA (Homo sapiens (Human), UniProt Q16552); assay: Human IL-17A biochemical assay (HTRF, blocking of IL-17A binding to IL-17RA); details: 0.4 nM IL-17A, 0.3 nM IL-17RA, max compound concentration 10 uM
Chain of human IL-17A / human IL-17RA (Q16552 24-155): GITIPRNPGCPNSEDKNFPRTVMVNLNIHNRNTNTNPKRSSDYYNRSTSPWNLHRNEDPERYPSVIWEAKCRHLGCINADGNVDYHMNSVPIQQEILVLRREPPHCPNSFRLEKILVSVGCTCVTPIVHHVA
Procedure, shortened: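 Steps: compound dilutions (max 10 uM, 10 points) pre-incubate with 0.4 nM IL-17A for 3 h at RT; 0.3 nM IL-17RA added for 1 h; HTRF antibody pair added for 1 h; fluorescence ratio read and percent inhibition fitted to a four-parameter logistic for IC50.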

SMILES	IC50 [1] [nM]	IC50 [2] [nM]
CNC(=O)C1(N2C[C@@H](C(C)C)NC2=O)Cc2ccc(NC(=O)[C@@H](NC(=O)c3nonc3C)C3CCC(F)(F)CC3)cc2C1 (stereo partly drawn) [Example 116, N-((1S)-1-(4,4-difluorocyclohexyl)-2-((2-((R)-4-isopropyl-2-oxoimidazolidin-1-yl)-2-(methylcarbamoyl)-2,3-dihydro-1H-inden-5-yl)amino)-2-oxoethyl)-4-methyl-1,2,5-oxadiazole-3-carboxamide]	415	69.1
CNC(=O)C1(N2C[C@@H](C(C)C)NC2=O)Cc2cc(NC(=O)[C@@H](NC(=O)c3ccnn3C)C3CCCCC3)cnc2C1 (stereo partly drawn) [Example 117, 3-((S)-2-cyclohexyl-2-(1-methyl-1H-pyrazole-5-carboxamido)acetamido)-6-((R)-4-isopropyl-2-oxoimidazolidin-1-yl)-N-methyl-6,7-dihydro-5H-cyclopenta[b]pyridine-6-carboxamide]	1060	925
CNC(=O)C1(N2C[C@@H](C(C)C)NC2=O)Cc2ccc(NC(=O)C(NC(=O)c3ccnn3C)C3CCC(C(C)(C)C)CC3)cc2C1 (stereo partly drawn) [Example 118, N-(1-(4-(tert-butyl)cyclohexyl)-2-((2-((R)-4-isopropyl-2-oxoimidazolidin-1-yl)-2-(methylcarbamoyl)-2,3-dihydro-1H-inden-5-yl)amino)-2-oxoethyl)-1-methyl-1H-pyrazole-5-carboxamide]	581	192
CNC(=O)C1(N2C[C@@H](C(C)C)NC2=O)Cc2cc(F)c(NC(=O)[C@@H](NC(=O)c3ccnn3C)C3CCCCC3)cc2C1 (stereo partly drawn) [Example 119, N-((1S)-1-cyclohexyl-2-((6-fluoro-2-((R)-4-isopropyl-2-oxoimidazolidin-1-yl)-2-(methylcarbamoyl)-2,3-dihydro-1H-inden-5-yl)amino)-2-oxoethyl)-1-methyl-1H-pyrazole-5-carboxamide]	144	73
CNC(=O)C1(N2CC3(CCC3)CNC2=O)Cc2ccc(NC(=O)[C@@H](NC(=O)c3ccnn3C)C(C3CC3)C3CC3)cc2C1 (stereo partly drawn) [Example 120, N-((2S)-1,1-dicyclopropyl-3-((2-(methylcarbamoyl)-2-(7-oxo-6,8-diazaspiro[3.5]nonan-6-yl)-2,3-dihydro-1H-inden-5-yl)amino)-3-oxopropan-2-yl)-1-methyl-1H-pyrazole-5-carboxamide]	72.4	19
CC(C)[C@@H]1CN(C2(C(=O)N[C@H](CO)C3CCCCC3)Cc3ccc(NC(=O)[C@@H](NC(=O)c4ccnn4C)C4CCCCC4)cc3C2)C(=O)N1 (stereo partly drawn) [Example 121, N-((1S)-1-cyclohexyl-2-((2-(((S)-1-cyclohexyl-2-hydroxyethyl)carbamoyl)-2-((R)-4-isopropyl-2-oxoimidazolidin-1-yl)-2,3-dihydro-1H-inden-5-yl)amino)-2-oxoethyl)-1-methyl-1H-pyrazole-5-carboxamide]	32.3	16
CC(C)[C@@H]1CN(C2(C(=O)N[C@@H](CO)C3CCCCC3)Cc3ccc(NC(=O)[C@@H](NC(=O)c4ccnn4C)C4CCCCC4)cc3C2)C(=O)N1 (stereo partly drawn) [Example 122, N-((1S)-1-cyclohexyl-2-((2-(((R)-1-cyclohexyl-2-hydroxyethyl)carbamoyl)-2-((R)-4-isopropyl-2-oxoimidazolidin-1-yl)-2,3-dihydro-1H-inden-5-yl)amino)-2-oxoethyl)-1-methyl-1H-pyrazole-5-carboxamide]	13	10
CNC(=O)C1(N2C[C@@H](C(C)C)NC2=O)CCc2cc3[nH]c([C@@H](NC(=O)c4ccnn4C)C4CCCCC4)nc3cc2C1 (stereo partly drawn) [Example 123, 2-((S)-cyclohexyl(1-methyl-1H-pyrazole-5-carboxamido)methyl)-6-((R)-4-isopropyl-2-oxoimidazolidin-1-yl)-N-methyl-5,6,7,8-tetrahydro-1H-naphtho[2,3-d]imidazole-6-carboxamide]	61.6	441
CC(C)CNC(=O)C1(N2C[C@@H](C(C)C)NC2=O)Cc2ccc(NC(=O)[C@@H](NC(=O)c3ccnn3C)C3CCCCC3)cc2C1 (stereo partly drawn) [Example 124, N-((1S)-1-cyclohexyl-2-((2-(isobutylcarbamoyl)-2-((R)-4-isopropyl-2-oxoimidazolidin-1-yl)-2,3-dihydro-1H-inden-5-yl)amino)-2-oxoethyl)-1-methyl-1H-pyrazole-5-carboxamide]	32.5	19
CCC1CCC(C(NC(=O)c2ccnn2C)C(=O)Nc2ccc3c(c2)CC(C(=O)NC)(N2CC4(CCC4)CNC2=O)C3)CC1 (stereo not shown) [Example 125, N-(1-(4-ethylcyclohexyl)-2-((2-(methylcarbamoyl)-2-(7-oxo-6,8-diazaspiro[3.5]nonan-6-yl)-2,3-dihydro-1H-inden-5-yl)amino)-2-oxoethyl)-1-methyl-1H-pyrazole-5-carboxamide]	25.8	5.6
CNC(=O)C1(N2C[C@@H](C(C)C)NC2=O)Cc2ccc(NC(=O)[C@@H](NC(=O)c3ccnn3CCO)C3CCCCC3)cc2C1 (stereo partly drawn) [Example 126, N-((1S)-1-cyclohexyl-2-((2-((R)-4-isopropyl-2-oxoimidazolidin-1-yl)-2-(methylcarbamoyl)-2,3-dihydro-1H-inden-5-yl)amino)-2-oxoethyl)-1-(2-hydroxyethyl)-1H-pyrazole-5-carboxamide]	3960	72
CNC(=O)C1(N2C[C@@H](C(C)C)NC2=O)Cc2ccc(NC(=O)C(NC(=O)c3ccnn3C)C3CCc4ccccc4C3)cc2C1 (stereo partly drawn) [Example 128, N-(2-((2-((R)-4-isopropyl-2-oxoimidazolidin-1-yl)-2-(methylcarbamoyl)-2,3-dihydro-1H-inden-5-yl)amino)-2-oxo-1-(1,2,3,4-tetrahydronaphthalen-2-yl)ethyl)-1-methyl-1H-pyrazole-5-carboxamide]	277	89.8
CNC(=O)C1(N2C[C@@H](C(C)C)NC2=O)Cc2ccc(NC(=O)[C@@H](NC(=O)c3ccnn3C3CC3)C3CCCCC3)cc2C1 (stereo partly drawn) [Example 129, N-((1S)-1-cyclohexyl-2-((2-((R)-4-isopropyl-2-oxoimidazolidin-1-yl)-2-(methylcarbamoyl)-2,3-dihydro-1H-inden-5-yl)amino)-2-oxoethyl)-1-cyclopropyl-1H-pyrazole-5-carboxamide]	119	44
CNC(=O)C1(N2CC3(CC3)CNC2=O)Cc2ccc(NC(=O)[C@@H](NC(=O)c3cc(C#N)cn3C)C3CCCCC3)cc2C1 (stereo partly drawn) [Example 130, 4-cyano-N-((1S)-1-cyclohexyl-2-((2-(methylcarbamoyl)-2-(6-oxo-5,7-diazaspiro[2.5]octan-5-yl)-2,3-dihydro-1H-inden-5-yl)amino)-2-oxoethyl)-1-methyl-1H-pyrrole-2-carboxamide]	59.6	19
CNC(=O)C1(N2CC3(CC3)CNC2=O)Cc2ccc(NC(=O)[C@@H](NC(=O)c3ccc(C#N)n3C)C3CCCCC3)cc2C1 (stereo partly drawn) [Example 131, 5-cyano-N-((1S)-1-cyclohexyl-2-((2-(methylcarbamoyl)-2-(6-oxo-5,7-diazaspiro[2.5]octan-5-yl)-2,3-dihydro-1H-inden-5-yl)amino)-2-oxoethyl)-1-methyl-1H-pyrrole-2-carboxamide]	14.9	5.5
CNC(=O)C1(N2CC3(CC3)CNC2=O)Cc2ccc(NC(=O)[C@@H](NC(=O)c3ccnn3C3CC(O)C3)C3CCCCC3)cc2C1 (stereo partly drawn) [Example 132, N-((1S)-1-cyclohexyl-2-((2-(methylcarbamoyl)-2-(6-oxo-5,7-diazaspiro[2.5]octan-5-yl)-2,3-dihydro-1H-inden-5-yl)amino)-2-oxoethyl)-1-(3-hydroxycyclobutyl)-1H-pyrazole-5-carboxamide]	178	66
CC(C)[C@@H]1CN(C2(C(=O)N(C)C)Cc3ccc(NC(=O)[C@@H](NC(=O)c4ccnn4C)C4CCCCC4)cc3C2)C(=O)N1 (stereo partly drawn) [Example 135, N-((1S)-1-cyclohexyl-2-((2-(dimethylcarbamoyl)-2-((R)-4-isopropyl-2-oxoimidazolidin-1-yl)-2,3-dihydro-1H-inden-5-yl)amino)-2-oxoethyl)-1-methyl-1H-pyrazole-5-carboxamide]	245	186
CC(C)[C@@H]1CN(C2(C(=O)N3CCC(O)C3)Cc3ccc(NC(=O)[C@@H](NC(=O)c4ccnn4C)C4CCCCC4)cc3C2)C(=O)N1 (stereo partly drawn) [Example 136, N-((1S)-1-cyclohexyl-2-((2-(3-hydroxypyrrolidine-1-carbonyl)-2-((R)-4-isopropyl-2-oxoimidazolidin-1-yl)-2,3-dihydro-1H-inden-5-yl)amino)-2-oxoethyl)-1-methyl-1H-pyrazole-5-carboxamide]	279	108
CNC(=O)C1(N2CC3(CC3)CNC2=O)Cc2cc3nc([C@@H](NC(=O)c4ccnn4C)C4CCCCC4)[nH]c3cc2C1 [Example 137, 2-((S)-cyclohexyl(1-methyl-1H-pyrazole-5-carboxamido)methyl)-N-methyl-6-(6-oxo-5,7-diazaspiro[2.5]octan-5-yl)-1,5,6,7-tetrahydroindeno[5,6-d]imidazole-6-carboxamide]	1490	413
CNC(=O)C1(N2CC3(CC3)CNC2=O)Cc2ccc(NC(=O)[C@@H](NC(=O)c3nonc3C)C3CCC(F)(F)CC3)cc2C1 (stereo partly drawn) [Example 138, N-((1S)-1-(4,4-difluorocyclohexyl)-2-((2-(methylcarbamoyl)-2-(6-oxo-5,7-diazaspiro[2.5]octan-5-yl)-2,3-dihydro-1H-inden-5-yl)amino)-2-oxoethyl)-4-methyl-1,2,5-oxadiazole-3-carboxamide]	101	53.1
